In data set [1] the test system is IDH2 mRNA in melanoma cell line WM66. Nature of the data set: IDH2 mRNA qRT-PCR in WM66 cells. The data set is classed as cell-based. The following applies: 10 uM, 16 hr. As to the method:
WM66 cells (FIG. 5A) or primary melanocytes (FIG. 5B) were treated with vehicle or compounds (10 uM) for 16 hr. Total RNA was isolated followed by qRT-PCR with IDH2 and actin primers. FIG. 5C indicated cells were treated with vehicle or compounds (10 uM) for 16 hr. Total genomic DNA was isolated, slot-blotted onto a nitrocellulose membrane, followed by blotting with 5-hmC antibodies (top panels). Blots were also stained with methylene blue, to determine equal loading of DNA (bottom panel).
Identification of 55152 (18-B3) scaffold as a WEE1 epigenetic inhibitor: Two major hits, 367416 (16-G9) and 55152 (18-B3) were taken up for further characterization. […] Accordingly, melanoma cell line WM66 and primary melanocytes were treated with inhibitors and IDH2 mRNA levels were measure by real time PCR.

Data set [2] in a line: Microsome Stability, Mouse. The data set is classed as in vitro ADME. The procedure:
(§1) ADME studies with 55152 (18-B3) and 367416 (16-G9): The solubility, microsome stability and plasma stability of these two compounds were also determined (Table 2).

A further data set is described as follows: Plasma Stability, Human. The data set is classed as in vitro ADME. As to the method:
as §1

The next data set is described as follows: Plasma Stability, Mouse. The data set is classed as in vitro ADME. As to the method: as §1
A further data set deals with T1, Wee1 KD (Homo sapiens, UniProt P30291).
T1 construct: WEE1 & WEE2 (as control) kinase domains from mammalian cells (HEK293T cells) were purified
Nature of the data set: Differential Scanning Fluorimetry (DSF), Wee1 KD. The settings on record: kinase domain purified from HEK293T cells. The data set is classed as binding. As to the method:
Binding study of WEE1 epigenetic inhibitors: To identify the precise binding region/domain of WEE1 epigenetic inhibitors, WEE1 & WEE2 (as control) kinase domains from mammalian cells (HEK293T cells) were purified. The binding of inhibitors was assessed using Differential Scanning Fluorimetry (DSF).

In data set [3] the target is T2, full length human WEE1 kinase (Homo sapiens, UniProt P30291). Nature of the data set: In vitro kinase assay, purified full length WEE1, pTyr immunoblot. It counts as biochemical. Set-up: a full length WEE1 kinase protein was incubated with the compounds. The settings on record: purified full length WEE1, 100 nM (FIG. 3A, 4A). As to the method:
The reaction mix was then subjected to immunoprecipitated with WEE1 antibodies, followed by immunoblotting with pTyr antibodies (top panel). As a control, purified ACK1 protein was incubated in the reaction buffer containing ATP, in presence of 100 nM epigenetic inhibitors. The reaction mix was then subjected to immunoprecipitated with ACK1 antibodies, followed by immunoblotting with pTyr antibodies (bottom panel). […] In addition, the lysates were also subjected to immunoblotting with actin antibodies (bottom panel). […] In addition, the lysates were also subjected to immunoblotting with actin antibodies (bottom panel).
FIGS. 4A-4B show structures of ‘hits’ identified in WEE1 epigenetic inhibitor screen. […] The reaction mix was then subjected to immunoprecipitated with WEE1 antibodies, followed by immunoblotting with pTyr antibodies. […] In addition, the lysates were also subjected to immunoblotting with actin antibodies (bottom panel).
To determine direct binding of these compounds causing WEE1 inhibition, a full length WEE1 kinase protein was incubated with the compounds. […] As a control, purified ACK1 kinase was also incubated with these compounds, none of these compounds were able to inhibit ACK1 kinase activity. These inhibitors were further validated by assessing their ability to suppress endogenous WEEE activity; LNCaP cells were treated with 10 μM of these compounds overnight.

The target in data set [4] is T2, full length human WEE1 kinase. Nature of the data set: ELISA based assay: WEE1 phosphorylation of biotinylated H2B peptide spanning Tyr37. The following applies: Table 1; several values in a cell are repeat determinations. It counts as biochemical. Further details: A full length human WEE1 kinase that was enzymatically active was purified from insect cell. From the text:
Designing of a Novel inhibitor Screening Platform: […] A full length human WEE1 kinase that was enzymatically active was purified from insect cell. […] NCI diversity set compound library ( 1600 compounds) was used for the screening.

The values that follow come from US11987568B2, “Allosteric inhibitor of WEE1 kinase” (H. LEE MOFFITT CANCER CENTER AND RESEARCH INSTITUTE, INC., priority 2018, dated 2024).

Where “and” joins values, the source holds several entries; their conditions need not be identical. Identical values can stand only once.

T2 sequence (P30291 whole entry): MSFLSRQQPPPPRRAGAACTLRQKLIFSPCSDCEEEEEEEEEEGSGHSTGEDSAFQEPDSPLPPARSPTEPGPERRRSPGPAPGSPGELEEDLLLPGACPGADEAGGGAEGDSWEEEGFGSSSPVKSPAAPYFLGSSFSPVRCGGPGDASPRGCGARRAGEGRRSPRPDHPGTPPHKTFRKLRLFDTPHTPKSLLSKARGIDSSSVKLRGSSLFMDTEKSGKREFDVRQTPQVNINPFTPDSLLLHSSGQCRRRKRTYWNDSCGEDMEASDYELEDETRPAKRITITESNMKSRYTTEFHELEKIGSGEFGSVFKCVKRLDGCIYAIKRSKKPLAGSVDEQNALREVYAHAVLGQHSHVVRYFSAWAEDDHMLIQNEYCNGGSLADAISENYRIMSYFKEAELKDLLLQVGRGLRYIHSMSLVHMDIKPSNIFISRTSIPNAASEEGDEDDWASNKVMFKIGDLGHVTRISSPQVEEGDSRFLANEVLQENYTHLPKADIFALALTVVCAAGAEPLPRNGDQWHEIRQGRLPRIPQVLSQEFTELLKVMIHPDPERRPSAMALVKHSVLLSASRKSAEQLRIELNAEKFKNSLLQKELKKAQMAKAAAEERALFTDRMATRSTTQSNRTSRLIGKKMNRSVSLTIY
T1 sequence (P30291 299-569): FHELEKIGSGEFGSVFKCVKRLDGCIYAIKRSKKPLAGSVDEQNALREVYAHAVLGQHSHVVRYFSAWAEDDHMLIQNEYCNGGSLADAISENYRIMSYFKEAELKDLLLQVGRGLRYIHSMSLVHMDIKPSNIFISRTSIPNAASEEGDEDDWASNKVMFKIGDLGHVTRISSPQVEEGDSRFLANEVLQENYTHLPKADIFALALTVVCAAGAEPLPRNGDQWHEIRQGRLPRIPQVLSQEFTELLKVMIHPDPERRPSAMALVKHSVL

Consider `Nc1ccc(NC(=O)c2ccc(C(=O)Nc3ccc(N)cc3)cc2)cc1` [SG5-061, N^1,N^4-bis(4-aminophenyl)terephthalamide], for which the “IDH2 mRNA levels” value in data set [1] is recorded as “Significant increase in IDH2 mRNA levels”. The “Microsome Stability % remaining @ 1 hr Mouse” value in data set [2] is on record as 95.21%. For the same compound, the “Plasma Stability % remaining @ 3 hrs Human” value in the data set “Plasma Stability, Human” came to 58.57%. In “Plasma Stability, Mouse”, the “Plasma Stability % remaining @ 3 hrs Mouse” value is listed as 50.76%. The “ΔTm for Wee1 KD (° C.)” value at Wee1 KD came to 0.5 °C; on Wee1 KD (listed as 55152 (18-B3)), 0.8 °C. Moreover, the “WEE1 kinase activity (pTyr immunoblot)” value is reported as “suppresses kinase activation better than 16-G9” in data set [3] (listed as 18-B3) and “significant loss of WEE1 kinase activity” in data set [3] (listed as 55152 (18-B3)). In addition, in data set [4], the “ELISA Inhibition (%)” value was 112% and 81% and 82% and 87% and 83% and 100% and 106%.
